Results published in patent publication US20250051338A1, “TYK2 DEGRADERS AND USES THEREOF” (Kymera Therapeutics, Inc., priority 2021, published 2025).

How the values were obtained:
Format in all cases: cell-based
[1] = molecular target: T1, TYK2 (Homo sapiens, UniProt P29597); assay: TYK2 degradation MSD assay in human PBMC cells; parameters: endogenous in cells; host or cells: human PBMC; settings: 4 to 24 hours incubation, read-out: TYK2 MSD DC50 rating in human PBMC
How it was run: (§1)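 TYK2 levels in lysed cells, detected via antibody capture and SULFO-TAG electrochemiluminescence, were compared across a nine-point threefold compound dilution (highest 1 to 10 μM) after 4–24 h culture at 37° C under 5% CO2. Four-parameter nonlinear regression of the dose response yielded DC50.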

[2] = molecular target: T1, TYK2; assay: TYK2 degradation MSD assay in EBV-B cells; parameters: endogenous in cells; host or cells: EBV-B cells; settings: 4 to 24 hours incubation, read-out: TYK2 MSD DC50 rating in EBV-B
How it was run: as §1

[3] = molecular target: T1, TYK2; assay: TYK2 degradation MSD assay in OCI-LY10 cells; parameters: endogenous in cells; host or cells: EBV-B cells; settings: 4 to 24 hours incubation, read-out: TYK2 MSD DC50 rating in OCI-LY10
How it was run: as §1

T1 sequence (P29597 whole entry): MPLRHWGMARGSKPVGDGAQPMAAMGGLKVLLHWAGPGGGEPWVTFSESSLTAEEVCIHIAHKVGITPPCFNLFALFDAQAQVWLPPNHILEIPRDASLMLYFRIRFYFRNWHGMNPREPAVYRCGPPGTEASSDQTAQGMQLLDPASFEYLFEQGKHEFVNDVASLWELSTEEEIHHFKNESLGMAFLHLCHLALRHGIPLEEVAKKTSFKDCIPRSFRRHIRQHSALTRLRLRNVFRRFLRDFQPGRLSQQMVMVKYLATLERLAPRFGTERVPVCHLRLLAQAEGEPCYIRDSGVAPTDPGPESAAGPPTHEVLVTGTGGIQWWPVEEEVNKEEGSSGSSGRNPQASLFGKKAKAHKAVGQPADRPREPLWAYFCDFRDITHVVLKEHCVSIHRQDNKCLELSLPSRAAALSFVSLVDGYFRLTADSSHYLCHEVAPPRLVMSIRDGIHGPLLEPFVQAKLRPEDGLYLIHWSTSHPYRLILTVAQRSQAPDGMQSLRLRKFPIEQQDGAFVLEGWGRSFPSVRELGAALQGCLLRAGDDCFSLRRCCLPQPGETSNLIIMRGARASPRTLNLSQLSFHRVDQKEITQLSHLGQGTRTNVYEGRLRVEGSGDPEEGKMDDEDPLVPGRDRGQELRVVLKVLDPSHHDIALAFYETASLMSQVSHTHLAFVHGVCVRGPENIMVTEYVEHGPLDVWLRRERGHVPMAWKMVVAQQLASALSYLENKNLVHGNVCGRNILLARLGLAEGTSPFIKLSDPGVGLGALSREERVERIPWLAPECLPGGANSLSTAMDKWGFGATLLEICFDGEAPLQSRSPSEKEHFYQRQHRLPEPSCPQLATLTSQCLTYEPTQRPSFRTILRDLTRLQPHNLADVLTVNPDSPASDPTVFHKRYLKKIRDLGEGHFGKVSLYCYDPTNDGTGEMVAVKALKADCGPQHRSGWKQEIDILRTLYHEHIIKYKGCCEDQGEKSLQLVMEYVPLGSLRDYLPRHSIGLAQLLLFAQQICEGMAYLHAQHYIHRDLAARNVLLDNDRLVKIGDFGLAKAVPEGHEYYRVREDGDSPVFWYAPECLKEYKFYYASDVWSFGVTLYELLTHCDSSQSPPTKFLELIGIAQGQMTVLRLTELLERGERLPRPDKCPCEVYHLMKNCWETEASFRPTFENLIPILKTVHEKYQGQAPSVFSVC

SMILES	DC50 [1]	DC50 [2]	DC50 [3]
CNc1cc(Nc2cccn(-c3ccc(C(=O)N4CCC(CN(C)C5CCN(c6ccc7c(c6)n(C)c(=O)n7C6CCC(=O)NC6=O)CC5)C4)cn3)c2=O)nn2c(C(=O)N[C@@H]3C[C@@H]3F)cnc12 (stereo partly drawn) [Example K445]	> 100 nM	> 100 nM	< 1 nM
CNc1cc(Nc2cccn(-c3ccc(C(=O)N4CCC(N(C)CC5CCN(c6ccc(-c7ccc8c(c7)n(C)c(=O)n8C7CCC(=O)NC7=O)cc6)C5)CC4)cn3)c2=O)nn2c(C(=O)N[C@@H]3C[C@@H]3F)cnc12 (stereo partly drawn) [Example K446]	> 100 nM	> 100 nM	< 1 nM
CNc1cc(Nc2cccn(-c3ccc(C(=O)NC4CCC(CN(C)CC5CCN(Cc6ccc7c(c6)n(C)c(=O)n7C6CCC(=O)NC6=O)CC5)CC4)cn3)c2=O)nn2c(C(=O)N[C@@H]3C[C@@H]3F)cnc12 (stereo partly drawn) [Example K447]	> 100 nM	> 100 nM	< 1 nM
CNc1cc(Nc2cccn(-c3ccc(C(=O)N[C@H]4CC[C@H](CN(C)C5CCN(Cc6cccc7c6n(C)c(=O)n7C6CCC(=O)NC6=O)CC5)CC4)cn3)c2=O)nn2c(C(=O)N[C@@H]3C[C@@H]3F)cnc12 (stereo partly drawn) [Example K449]	> 100 nM	> 100 nM	< 1 nM
CNc1cc(Nc2cccn(-c3ccc(C(=O)N4CC(CN5CCC(c6cccc7c6n(C)c(=O)n7C6CCC(=O)NC6=O)CC5)C4)cn3)c2=O)nn2c(C(=O)N[C@@H]3C[C@@H]3F)cnc12 (stereo partly drawn) [Example K450]	> 100 nM	> 100 nM	< 1 nM
CNc1cc(Nc2cccn(-c3ccc(C(=O)N4CCC(CN5CCCC(c6cccc7c6n(C)c(=O)n7C6CCC(=O)NC6=O)C5)CC4)cn3)c2=O)nn2c(C(=O)N[C@@H]3C[C@@H]3F)cnc12 (stereo partly drawn) [Example K451]	> 100 nM	> 100 nM	< 1 nM
Cn1c(=O)n(C2CCC(=O)NC2=O)c2cccc(N3CCC4(CC3)CN(Cc3ccc(-c5cccc(Nc6ccc7ncc(C(=O)NC8CC8)n7n6)c5)nc3)C4)c21 (stereo not drawn) [Example K452]	> 100 nM	> 100 nM	> 100 nM
CNc1cc(Nc2cccn(-c3ccc(C(=O)N4CCC(N5CCC(N6CCN(c7ccc8c(c7)n(C)c(=O)n8C7CCC(=O)NC7=O)CC6)CC5)CC4)cn3)c2=O)nn2c(C(=O)N[C@@H]3C[C@@H]3F)cnc12 (stereo partly drawn) [Example K453]	> 100 nM	< 1 nM	< 1 nM
CNc1cc(Nc2cccn(-c3ccc(CN4CCN([C@H]5CC[C@H](c6ccc(-c7ccc8c(c7)n(C)c(=O)n8C7CCC(=O)NC7=O)cc6)CC5)CC4)cn3)c2=O)nn2c(C(=O)N[C@@H]3C[C@@H]3F)cnc12 (stereo partly drawn) [Example K454]	> 100 nM	< 1 nM	< 1 nM
CNc1cc(Nc2cccc(-c3ccc(CN4CCN(c5ccc(-c6ccc7c(c6)n(C)c(=O)n7C6CCC(=O)NC6=O)cn5)C(=O)C4)cn3)c2)nn2c(C(=O)N[C@@H]3C[C@@H]3F)cnc12 (stereo partly drawn) [Example K455]	> 100 nM	< 1 nM	< 1 nM
Cn1c(=O)n(C2CCC(=O)NC2=O)c2ccc(-c3ccc(N4CCN(Cc5ccc(-c6cccc(Oc7ccc8ncc(C(=O)NC9CC9)n8n7)c6)nc5)CC4)cc3)cc21 (stereo not drawn) [Example K456]	> 100 nM	> 100 nM	> 100 nM
CNc1cc(Nc2cccn(-c3ccc(CN4CCN(c5ccc(-c6ccc7c(c6)n(C)c(=O)n7C6CCC(=O)NC6=O)cn5)C(=O)C4)cn3)c2=O)nn2c(C(=O)N[C@@H]3C[C@@H]3F)cnc12 (stereo partly drawn) [Example K457]	> 100 nM	> 100 nM	< 1 nM
Cn1c(=O)n(C2CCC(=O)NC2=O)c2ccc(-c3ccc(N4CCN(Cc5ccc(-c6cccc(Nc7ccc8ncc(C(=O)NC9CC9)n8n7)c6)nc5)CC4=O)nc3)cc21 (stereo not drawn) [Example K459]	> 100 nM	> 100 nM	> 100 nM
CNc1cc(Nc2cccc(-c3ccc(CN4CCN(c5cccc6c5n(C)c(=O)n6C5CCC(=O)NC5=O)CC4)cn3)c2)nn2c(C(=O)N[C@@H]3C[C@@H]3F)cnc12 (stereo partly drawn) [Example K460]	> 100 nM	> 100 nM	< 1 nM
CNc1cc(Nc2cccc(-c3ccc(CNCc4ccc(N5CCC(N6CCC(c7ccc8c(c7)n(C)c(=O)n8C7CCC(=O)NC7=O)C6)CC5)cc4)cn3)c2)nn2c(C(=O)N[C@@H]3C[C@@H]3F)cnc12 (stereo partly drawn) [Example K461]	> 100 nM	> 100 nM	1 to 10 nM
CNc1cc(Nc2cccn(-c3ccc(C(=O)N4CCC(N5CCC(N6CCN(c7cccc8c7n(C)c(=O)n8C7CCC(=O)NC7=O)CC6)CC5)CC4)cn3)c2=O)nn2c(C(=O)N[C@@H]3C[C@@H]3F)cnc12 (stereo partly drawn) [Example K462]	> 100 nM	> 100 nM	1 to 10 nM

The remaining lines, values ahead:

DC50 [1]	DC50 [2]	DC50 [3]	SMILES
> 100 nM	> 100 nM	> 100 nM	Cn1c(=O)n(C2CCC(=O)NC2=O)c2cccc(C#CCN3CCN(Cc4ccc(-c5cccc(Nc6ccc7ncc(C(=O)NC8CC8)n7n6)c5)nc4)CC3)c21 (stereo not drawn) [Example K433]
> 100 nM	> 100 nM	< 1 nM	CNc1cc(Nc2cccc(-c3ccc(CN4CCN(C5CCN(c6ccc7c(c6)n(C)c(=O)n7C6CCC(=O)NC6=O)CC5)CC4)cn3)c2)nn2c(C(=O)N[C@@H]3C[C@@H]3F)cnc12 (stereo partly drawn) [Example K435]
> 100 nM	> 100 nM	< 1 nM	CNc1cc(Nc2cccc(-c3ccc(CN4CCC(C#Cc5ccc6c(c5)n(C)c(=O)n6C5CCC(=O)NC5=O)CC4)cn3)c2)nn2c(C(=O)N[C@@H]3C[C@@H]3F)cnc12 (stereo partly drawn) [Example K436]
> 100 nM	> 100 nM	< 1 nM	CNc1cc(Nc2cccn(-c3ccc(CNCc4ccc(N5CCC(N6CCC(c7ccc8c(c7)n(C)c(=O)n8C7CCC(=O)NC7=O)C6)CC5)cc4)cn3)c2=O)nn2c(C(=O)N[C@@H]3C[C@@H]3F)cnc12 (stereo partly drawn) [Example K437]
> 100 nM	> 100 nM	1 to 10 nM	CNc1cc(Nc2cccn(-c3ccc(C(=O)N(C)CCCOC4CCN(c5ccc6c(c5)n(C)c(=O)n6C5CCC(=O)NC5=O)CC4)cn3)c2=O)nn2c(C(=O)N[C@@H]3C[C@@H]3F)cnc12 (stereo partly drawn) [Example K438]
> 100 nM	> 100 nM	< 1 nM	CNc1cc(Nc2cccn(-c3ccc(C(=O)N(C)C4CCN(c5ccc(-c6ccc7c(c6)n(C)c(=O)n7C6CCC(=O)NC6=O)cc5)C4)cn3)c2=O)nn2c(C(=O)N[C@@H]3C[C@@H]3F)cnc12 (stereo partly drawn) [Example K439]
> 100 nM	> 100 nM	< 1 nM	CNc1cc(Nc2cccn(-c3ccc(C(=O)N4CCN(CCOc5cccc(-c6ccc7c(c6)n(C)c(=O)n7C6CCC(=O)NC6=O)c5)CC4)cn3)c2=O)nn2c(C(=O)N[C@@H]3C[C@@H]3F)cnc12 (stereo partly drawn) [Example K440]
> 100 nM	> 100 nM	< 1 nM	CNc1cc(Nc2cccn(-c3ccc(C(=O)N4CCC5(CCN(c6ncc(C#Cc7ccc8c(c7)n(C)c(=O)n8C7CCC(=O)NC7=O)cn6)C5=O)C4)cn3)c2=O)nn2c(C(=O)N[C@@H]3C[C@@H]3F)cnc12 (stereo partly drawn) [Example K441]
> 100 nM	> 100 nM	< 1 nM	CNc1cc(Nc2cccn(-c3ccc(C(=O)N4CCC(OC5CC(c6cccc7c6n(C)c(=O)n7C6CCC(=O)NC6=O)C5)CC4)cn3)c2=O)nn2c(C(=O)N[C@@H]3C[C@@H]3F)cnc12 (stereo partly drawn) [Example K442]
1 to 10 nM	1 to 10 nM	1 to 10 nM	CNc1cc(Nc2cccn(-c3ccc(C(=O)NC4CCC(C(=O)N5CCC6(CN(CC#Cc7ccc8c(c7)n(C)c(=O)n8C7CCC(=O)NC7=O)C6)C5)CC4)cn3)c2=O)nn2c(C(=O)N[C@@H]3C[C@@H]3F)cnc12 (stereo partly drawn) [Example K444]
